Experimental data reported in PMC11714206, “Massively Parallel Screening of Toll/Interleukin‐1 Receptor (TIR)‐Derived Peptides Reveals Multiple Toll‐Like Receptors (TLRs)‐Targeting Immunomodulatory Peptides” (Advanced Science, 2024).
Values joined by “and” are separate entries in the source; they are usually repeats but may differ in a detail not shown here. Identical values can stand only once. Values belong to the sequence of their own block, whether it stands above or below them.

Target: T1, MAL^TIR (Homo sapiens, UniProt P58753)
T1 construct: MAL (residues 79–221); 6xHis; made in house; host or cells: E. coli BL21 (DE3)
Assay: T‐Surf phage library (P8 and P3) selection against MAL^TIR, four rounds, NGS read counts
Type: binding
Settings: for P8_MAL Rank (after) / P8_MAL Rank (before): P8 library; for Population: 4th round of selection against MAL TIR, share of NGS reads; for P3_MAL Rank (after) / P3_MAL Rank (before): P3 library
Procedure, shortened: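 Read counts come from NGS of phage pools after the fourth selection round, barcoded by 20-cycle PCR and filtered for quality ≥30. Each round: phage incubated 1 h at RT on immobilised TIR protein (5 µg mL^−1, BSA-blocked), washed, HCl-eluted and amplified in E. coli TG1.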

[1] = 4R selection against MAL, rank after grouping
[2] = 4R selection against MAL, rank before grouping
[3] = P8_MAL pool: P8 T-Surf phage library
[4] = P8_MAL: rank by count after grouping
[5] = P8_MAL: rank by count before grouping
[6] = selection against MAL, rank by count after grouping
[7] = selection against MAL, rank by count before grouping
[8] = selection against MAL TIR, rank by count after grouping
[9] = selection against MAL TIR, rank by count before grouping
[10] = selection against MAL, rank after grouping
[11] = selection against MAL, rank before grouping
[12] = P3_MAL: rank by count after grouping
[13] = P3_MAL: rank by count before grouping
[14] = P3_MAL pool: P3 T-Surf phage library

T1 sequence (P58753 79-221): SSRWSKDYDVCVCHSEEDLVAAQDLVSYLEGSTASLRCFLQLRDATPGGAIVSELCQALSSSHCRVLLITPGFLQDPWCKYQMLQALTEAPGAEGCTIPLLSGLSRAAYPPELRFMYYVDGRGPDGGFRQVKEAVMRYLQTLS

Sequence: KRFEDRMNKVLEWKAA
P8_MAL Rank (after) [6]: 698 | P8_MAL Rank (before) [7]: 2674

Sequence: WFYERLVRLILRDTKA
Rank (after) [4]: 174 | Rank (before) [5]: 1185

Sequence: WFYESLVSMIMRDTKV
P8_MAL Rank (after) [8]: 213 | P8_MAL Rank (before) [9]: 1303

Sequence: NQCTDALTAAVVLSGW
P3_MAL Rank (after) [10]: 528 | P3_MAL Rank (before) [11]: 3330

Sequence: AFFCAQQKSVLRNPTK
P8_MAL Rank (after) [10]: 516 | P8_MAL Rank (before) [11]: 1725

Sequence: RLLKWKEALTAAANLSGW
P3_MAL Rank (after) [1]: 642 | P3_MAL Rank (before) [2]: 2524

Sequence: NQLRTALTAAANLSGW
P3_MAL Rank (after) [8]: 267 | P3_MAL Rank (before) [9]: 3324

Sequence: LKAESWRQAPEKAGKL
P3_MAL Rank (after) [8]: 259 | P3_MAL Rank (before) [9]: 2306

Sequence: PNLRTNVLNYLIRTKT
Rank (after) [12]: 141 | Rank (before) [13]: 2745

Sequence: WDDPWFWDKLHYAMPR
Rank (after) [4]: 463 | Rank (before) [5]: 1422

Sequence: RLLKWKEALHQFHSSL
Rank (after) [12]: 172 | Rank (before) [13]: 2515

Sequence: RNLVAYLFQALETKGI
Rank (after) [4]: 416 | Rank (before) [5]: 2243

Sequence: RYIMPHPQVLSQKKQQ
P3_MAL Rank (after) [6]: 725 | P3_MAL Rank (before) [7]: 2329

Sequence: WFYERLVSMITRDTNV
P8_MAL Rank (after) [10]: 486 | P8_MAL Rank (before) [11]: 1271

Sequence: PNLRTKLLNYLIRTKT
P3_MAL Rank (after) [8]: 280 | P3_MAL Rank (before) [9]: 2694

Sequence: TSFREGLLRLLELSKK
P3_MAL Rank (after) [6]: 754 | P3_MAL Rank (before) [7]: 3239

Sequence: LFFWERLKQLLRSDCR
Rank (after) [4]: 100 | Rank (before) [5]: 2072

Sequence: AFFWEQLRTLLSKPTM
Rank (after) [4]: 433 | Rank (before) [5]: 1673

Sequence: YAFSGHLLHDLVLIRE
Rank (after) [12]: 427 | Rank (before) [13]: 1347

Sequence: PNLRTTVQNYLMRTKT
P3_MAL Rank (after) [8]: 216 | P3_MAL Rank (before) [9]: 2690

Sequence: WFYERLVSLILRVTKI
P8_MAL Rank (after) [10]: 553 | P8_MAL Rank (before) [11]: 1199

Sequence: DSLFWDRLLYSLHVTE
Rank (after) [4]: 157 | Rank (before) [5]: 877

Sequence: SEFIQKMILWMNTKVV
P8_MAL Rank (after) [6]: 689 | P8_MAL Rank (before) [7]: 2438

Sequence: CFYEGQLFLALADKSI
P8_MAL Rank (after) [8]: 284 | P8_MAL Rank (before) [9]: 1106

Sequence: KMQKWKEALHQFHSWV
Rank (after) [12]: 108 | Rank (before) [13]: 233

Sequence: FLNWPRNPKEHRHFWH
P3_MAL Rank (after) [8]: 241 | P3_MAL Rank (before) [9]: 1181

Sequence: RGFLSHLRHHLQAKD
P3_MAL Rank (after) [1]: 648 | P3_MAL Rank (before) [2]: 2376

Sequence: PFLGHLSNALVQAGIH
Rank (after) [4]: 132 | Rank (before) [5]: 2331

Sequence: FLNFRGLDVRNYFLGH
P8_MAL Rank (after) [10]: 560 | P8_MAL Rank (before) [11]: 1088

Sequence: AFLCTFLINLTHNTTF
Rank (after) [4]: 185 | Rank (before) [5]: 1757

Sequence: AFFWAQLKSELGNPTM
Population [3]: 0.00463%

Sequence: YAFTCHLHRYLVQRGV
Population [14]: 0.00413%

Sequence: AFFWAQLKNVLGSPTI
P8_MAL Rank (after) [6]: 718 | P8_MAL Rank (before) [7]: 1642

Sequence: SFFWNKLRYILPAPNN
P3_MAL Rank (after) [1]: 596 | P3_MAL Rank (before) [2]: 3013

Sequence: LFFYESLKHLLRIDCR
P8_MAL Rank (after) [1]: 646 | P8_MAL Rank (before) [2]: 2170

Sequence: RNIVAYPFQALANIGI
Rank (after) [4]: 437 | Rank (before) [5]: 2252

Sequence: HLLKKPRNKRISPFIA
P3_MAL Rank (after) [6]: 692 | P3_MAL Rank (before) [7]: 2803

Sequence: RLRKWKGALHHFLSWG
P3_MAL Rank (after) [6]: 728 | P3_MAL Rank (before) [7]: 2544

Sequence: RLLNWKEALHQFHSWV
Population [14]: 0.00338%

Sequence: VRQNFISHLYDALHRNRI
Rank (after) [12]: 140 | Rank (before) [13]: 406

Sequence: ALLYPFLINLTHPTHF
P8_MAL Rank (after) [10]: 522 | P8_MAL Rank (before) [11]: 1957

Sequence: VEPTQVRKLRGAVEKV
P3_MAL Rank (after) [6]: 743 | P3_MAL Rank (before) [7]: 1658

Sequence: NQWRNALTAVANLSGW
Population [14]: 0.00451%

Continued, values first:

P8_MAL Rank (after) [1]: 637 | P8_MAL Rank (before) [2]: 1668
Sequence: AFFWERLRPVLRKPTR

Population [3]: 0.00309%
Sequence: AFLYTFLINLTHPSNF

Rank (after) [4]: 426 | Rank (before) [5]: 1748
Sequence: AFFGEQVSPVLGKPTM

P3_MAL Rank (after) [1]: 590 | P3_MAL Rank (before) [2]: 2423
Sequence: RGCLSHLRHHLHAKEH

Rank (after) [4]: 124 | Rank (before) [5]: 2128
Sequence: LFFWKSLKQLLRSDSR

Rank (after) [12]: 173 | Rank (before) [13]: 3340
Sequence: NQWRNSLTAAANLRGW

P8_MAL Rank (after) [6]: 686 | P8_MAL Rank (before) [7]: 1786
Sequence: AFYWAQLKIVLGNPTM

Rank (after) [12]: 394 | Rank (before) [13]: 3183
Sequence: SSFREGIWRLLELRKK

P8_MAL Rank (after) [1]: 596 | P8_MAL Rank (before) [2]: 2297
Sequence: RNNYIGHLYQALYRNG

P8_MAL Rank (after) [6]: 702 | P8_MAL Rank (before) [7]: 1809
Sequence: AFLYSLLFNRTHPNYF

P3_MAL Rank (after) [8]: 220 | P3_MAL Rank (before) [9]: 1438
Sequence: YAFTGHLTGYLVQRGV

Rank (after) [4]: 188 | Rank (before) [5]: 742
Sequence: WFYERLVSLILRIPK

Rank (after) [4]: 164 | Rank (before) [5]: 2209
Sequence: RNFVAYLFQALAKPA

P3_MAL Rank (after) [6]: 681 | P3_MAL Rank (before) [7]: 1202
Sequence: FMSHLYQGLLKGLIIT

Rank (after) [4]: 408 | Rank (before) [5]: 1766
Sequence: AFLWTQLKNVLGNPTF

Rank (after) [12]: 457 | Rank (before) [13]: 2263
Sequence: LKVESWRRAPEKAGKL

P8_MAL Rank (after) [10]: 527 | P8_MAL Rank (before) [11]: 1722
Sequence: AFFWTQLSTVMGKPTM

Rank (after) [12]: 476 | Rank (before) [13]: 3209
Sequence: SSCLEGLWRLLELSKK

P3_MAL Rank (after) [8]: 247 | P3_MAL Rank (before) [9]: 2742
Sequence: PNLRTKLLNYLMHTKT

P8_MAL Rank (after) [8]: 257 | P8_MAL Rank (before) [9]: 1607
Sequence: AFFWAQLKRAGQSDD

Rank (after) [12]: 180 | Rank (before) [13]: 2553
Sequence: RLMKWKEALHPFHSWV

P8_MAL Rank (after) [1]: 582 | P8_MAL Rank (before) [2]: 1890
Sequence: AFLYNFFNDLTHPTIY

P3_MAL Rank (after) [6]: 687 | P3_MAL Rank (before) [7]: 1963
Sequence: DSHSSRFKEDAELGGQ

Rank (after) [4]: 158 | Rank (before) [5]: 1511
Sequence: YFLHSCCLAVRKPSI

Population [3]: 0.00309%
Sequence: YFLHFLLFSRPETVYI

Rank (after) [12]: 406 | Rank (before) [13]: 2702
Sequence: PNLRTKVLDYLLRTKT

P8_MAL Rank (after) [8]: 207 | P8_MAL Rank (before) [9]: 896
Sequence: EKIVEWVWGKVHRTFK

P3_MAL Rank (after) [10]: 541 | P3_MAL Rank (before) [11]: 2842
Sequence: HHKGSYGEALHQFHSWV

P3_MAL Rank (after) [10]: 508 | P3_MAL Rank (before) [11]: 3405
Sequence: NQWRNELTAAANLNGW

P8_MAL Rank (after) [1]: 657 | P8_MAL Rank (before) [2]: 2687
Sequence: KLFWEKLKLFLPSLSR

Rank (after) [4]: 460 | Rank (before) [5]: 1954
Sequence: AVLYTFLINLTHPTKF

Rank (after) [4]: 452 | Rank (before) [5]: 1510
Sequence: YFLHSLLISLTDPAYI

P3_MAL Rank (after) [8]: 239 | P3_MAL Rank (before) [9]: 3510
Sequence: KWFWDKLIYPLSRNPQ

Population [14]: 0.0436% | Rank (after) [12]: 99 | Rank (before) [13]: 99
Sequence: SKDYAQSAWALEELTK

Rank (after) [4]: 113 | Rank (before) [5]: 556
Sequence: WFWDKLKYALPHRYEP

P8_MAL Rank (after) [10]: 528 | P8_MAL Rank (before) [11]: 2559
Sequence: TFLGHLYIAMVQAAIH

Population [3]: 0.00371% and 0.0034%
Sequence: LFFCESLKQLLRSDGR

Rank (after) [4]: 104 | Rank (before) [5]: 2327
Sequence: PLLYTFLINLTHPTNF

Population [14]: 0.00376%
Sequence: NQCRNALTAAANLSGW

Population [14]: 0.00413%
Sequence: NQWRNALTAAANLIGW

Rank (after) [4]: 412 | Rank (before) [5]: 1352
Sequence: WFLSAFLIPMAQLADT

Rank (after) [4]: 102 | Rank (before) [5]: 1724
Sequence: AFFCAQLKRVLGNPTM
